Data taken from publication PMC8312610, “F4, a collagen XIX-derived peptide, inhibits tumor angiogenesis through αvβ3 and α5β1 integrin interaction” (Cell Adhesion & Migration, 2021).
Entries after “also recorded” stand apart in the source; their conditions may differ. Positions of bridges follow the written chain, without caps; N, C: chain ends. No end group written: not given here.

Key:
[1] = tested on: HUVEC (Human Umbilical Vein Endothelial Cells); test: HUVEC proliferation (crystal violet); format: cell-based; details: 40 μM, 48 h, 5,000 HUVEC per well in ECGM, 560 nm, means ± SD (n = 16), N = 3
Description: Figure 1. […] 5,000 HUVEC were seeded in a 96 well plate and incubated with or without 40 μM NC1(XIX) or F4 for 48 hours. After washing, cells were fixed with glutaraldehyde and stained with crystal violet. Dye was eluted with 10% acetic acid and absorbance was read at 560 nm. The values are the means ± SD (n = 16). The experiment was repeated three times (N = 3) and the results presented in the figure correspond to the more representative one
(§1) Human Umbilical Vein Endothelial Cells (HUVEC) (Ref C-12253) were purchased from Promocell. They were grown in Endothelial Cell Growth Medium (ECGM) (Promocell, Ref C-22110: Basal medium supplemented with 0.02 mL/mL Fetal Calf Serum, 0.004 mL/mL Endothelial Cell Growth Supplement, 0.1 ng/mL Epidermal Growth Factor (recombinant human), 1 ng/mL Basic Fibroblast Growth Factor (recombinant human), 90 μg/mL Heparin, 1 μg/mL Hydrocortisone) at +37°C in a humid atmosphere containing 5% CO2. PromoCell Detach Kit was used for the detachment of HUVEC according to the manufacturer’s protocols (Promocell, ref C-41200).
For cell proliferation measurement, 5,000 HUVEC were seeded in 96-well plates and cultivated in ECGM with or without 40 μM NC1(XIX) or F4 at +37°C in a humid atmosphere containing 5% CO2. […] Dye was eluted with 10% (v/v) acetic acid and absorbance was read at 560 nm.

HUVEC = test: Capillary (pseudo-)tube formation on Matrigel; format: cell-based, human
Description: Figure 2. NC1(XIX) and F4 inhibit endothelial cell in vitro pseudotube formation. 50,000 HUVEC were seeded in Matrigel coated well of a 48 well-plate and incubated with or without 40 μM NC1(XIX) or F4. Pseudotube formation was observed and photographed under an inverted microscope after 8 hours (a). The number of segments, of nodes and the total length of pseudotubes were quantified by the ImageJ software, using the Angiogenesis Analyzer tool (b). The values are the means ± SD (n = 8 replicates). *** p < 0.001). The experiment was repeated three times (N = 3)
as §1
The ability of HUVEC to form pseudo-tubes was investigated on Matrigel (Corning, ref 356237). Matrigel was loaded into 48-well plate and allowed to polymerize at +37°C for 2 h. 50,000 HUVEC suspended in Basal media supplemented with 0.004 mL/mL Endothelial Cell Growth Supplement, 90 μg/mL Heparin, 1 μg/mL Hydrocortisone with or without 40 μM NC1(XIX) or F4 were seeded into each well. Plates were incubated at +37°C in a humid atmosphere containing 5% CO2, 95% for 8 h. The formation of the capillary network was then imaged under an inverted light microscope. Quantitative evaluation of the capillary network was performed using the angiogenesis analyzer tool of ImageJ analysis software. The number of nodes, of segments and the total length of the capillary network were determined.

αvβ3 integrin [2] = test: Solid phase assay, direct binding to αvβ3; parameters: species or system human; details: solid phase assays
Description: (§2) Figure 5. F4 directly binds to αvβ3 and α5β1 integrins. Direct interaction between αvβ3 or α5β1 integrin and F4 was studied using solid phase assays as described in the material and method section. The F4 peptide was biotinylated to allow its detection using the streptavidin-peroxidase complex. Different conditions were used. (a-b) The amounts of coated αvβ3 (a) or α5β1 integrin (b) were increased while biotinylated F4 peptide was kept constant. (c-d) The concentration of biotinylated F4 peptide was increased while coated amounts of αvβ3 (c) or α5β1 (d) integrins were kept constant. (e-f) Competitive assays were performed using increasing concentrations of F4 peptide while biotinylated-F4 peptide and αvβ3 (e) or α5β1 (f) integrins were kept constant. […]
(§3) Wells of a 96-well plate were coated with α5β1 (ref. 3230-A5-050, R&D systems) and/or αvβ3 integrin (ref. 3050-AV-050, R&D systems) at different concentrations ranging from 26 × 10^−7 mol/L to 0.1 × 10^−7 mol/L (100 μL per well in PBS). […] The intensity of the yellow coloration was measured at 450 nm with an LB940 spectrophotometer (Berthold Technologies).
(§4) The optimum integrin amount for the coating was determined using the above protocol and the optimum ligand concentration was sought using different dilutions of the biotinylated-F4 peptide ranging from 20.8 × 10^−4 to 0.16 × 10^−4 mol/L.

α5β1 integrin = test: Solid phase assay, direct binding to α5β1; parameters: species or system human; details: solid phase assays
Description: as §2, §3, §4

αvβ3 integrin [3] = test: Solid phase competition assay with biotinylated-F4, αvβ3; format: binding, human; details: unlabeled F4, molar ratio 1/0 to 1/125, integrin coated at 26 × 10^−7 mol/L, 90 min, room temperature, N = 2
Description: Figure 5. F4 directly binds to αvβ3 and α5β1 integrins. Direct interaction between αvβ3 or α5β1 integrin and F4 was studied using solid phase assays as described in the material and method section. The F4 peptide was biotinylated to allow its detection using the streptavidin-peroxidase complex. Different conditions were used. (a-b) The amounts of coated αvβ3 (a) or α5β1 integrin (b) were increased while biotinylated F4 peptide was kept constant. (c-d) The concentration of biotinylated F4 peptide was increased while coated amounts of αvβ3 (c) or α5β1 (d) integrins were kept constant. (e-f) Competitive assays were performed using increasing concentrations of F4 peptide while biotinylated-F4 peptide and αvβ3 (e) or α5β1 (f) integrins were kept constant. The solid phase assays were repeated twice (N = 2; n = 2)
as §3, with “PBS). The 96-well plate was left overnight at room temperature. The coating was then blocked with TBS containing 5% nonfat dry milk, 1 mM MgCl2 and 1 mM CaCl2 for 2 h at room temperature.” for “PBS).”, “Technologies). […]” for “Technologies).”

[4] = 40 µM, 8 h, 50,000 HUVEC on Matrigel, ImageJ Angiogenesis Analyzer, p < 0.001 for NC1(XIX) and F4, n = 8, N = 3

CNPEDCLYPVSHAHQR (disulfide 1-6 (inferred)) [F4, collagen XIX-derived peptide, released by plasmin from type XIX collagen]
effect on HUVEC proliferation [1]: not significantly modified; also recorded: does not affect endothelial cell proliferation
decrease of the number of nodes vs control (HUVEC; [4]): 77%
decrease of the number of segments vs control (HUVEC; [4]): 52%
decrease of the total length of capillary tubes vs control (HUVEC; [4]): 49%
inhibition of capillary network, F4 compared with NC1(XIX) (HUVEC; 40 µM, 8 h, HUVEC on Matrigel): stronger inhibition of the number of nodes, segments and of the total length of capillary network than NC1(XIX) peptide
inhibition of pseudo-tube formation (HUVEC; 40 µM, 8 h, HUVEC on Matrigel, compared to control): strongly inhibited pseudo-tube formation
inhibition of VEGF-induced pseudo-tube formation (HUVEC; endothelial cells on Matrigel (abstract)): inhibited VEGF-induced pseudo-tube formation
anti-angiogenic effect on pseudo-tube formation, F4 compared with NC1(XIX) (discussion) (HUVEC; in vitro): even greater than the whole NC1(XIX) domain
direct binding to αvβ3 (conclusion) (αvβ3 integrin [2]): binds to both αvβ3 and α5β1 integrins in a direct manner
direct binding to α5β1 (conclusion) (α5β1 integrin): binds to both αvβ3 and α5β1 integrins in a direct manner
competition with biotinylated-F4 binding to αvβ3 (αvβ3 integrin [3]): decreased consequently
